Reference: US10028931B2, “Synergistic compositions for treating microbial infections” (UNIVERSITY OF ROCHESTER, priority 2014, dated 2018)
≈ marks a conversion by molar mass, not a printed value. Like-named read-outs stand apart in the source and are kept apart here.

What was measured:
[1] = molecular target: T1, S. aureus RNase P (RnpA+rnpB) (Staphylococcus aureus, UniProt P0A0H5); assay: RNase P activity assay (precursor tRNA processing); format: biochemical; conditions: gel densitometry
T1 sequence (P0A0H5 1-117): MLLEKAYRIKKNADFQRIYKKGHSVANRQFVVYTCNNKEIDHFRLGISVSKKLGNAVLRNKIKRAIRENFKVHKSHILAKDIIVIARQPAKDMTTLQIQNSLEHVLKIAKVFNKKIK
Experimental: The RNase P inhibitors described herein were tested for activity toward RNase P. S. aureus RNase P activity assays were performed in low salt buffer (50 mM Tris-HCl pH 8.0, 5 mM MgCl2) or in high salt buffer (50 mM Tris-HCl pH 8.0, 100 mM MgCl2, 800 mM NH4Cl). For all reactions, ptRNATyr, tRNATyr, or rnpB RNA species were first denatured by heating to 95° C. for 3 minutes, and then slowly cooling the mixtures to room temperature. RNase P was reconstituted by mixing an equal molar ratio of RnpB and RnpA for 15 min at 37° C. Precursor tRNA processing reactions (20 μL) were performed by mixing 1.25 pmol RNase P (RnpA+rnpB), RnpA, or rnpB with an equal volume of 2× low salt buffer or 2× high salt buffer and 10 pmol ptRNATyr. Mixtures were incubated for 15 min at 37° C. Reactions were stopped by adding 20 μL 2×RNA loading dye (95% formamide, 0.025% SDS, 0.025% bromophenol blue, 0.025% xylene cyanol FF, 0.5 mM EDTA), and 30 μL of each sample was electrophoresed in a 7 M urea/8% polyacrylamide gel and was then stained with ethidium bromide (0.5 μg/ml). Where indicated, reactions were repeated in the presence of the indicated amount of putative RnpA inhibitors or dimethyl sulfoxide (DMSO). A FluorChem 5500 imaging system was used to visualize the RNA, and the relative abundance of the mature tRNATyr band in the positive control (RNase P+DMSO) or in samples containing test compounds was measured using Image J densitometry software (NIH). The percent RNase P activity was then calculated using the following calculation: (test compound tRNATyr signal/positive control tRNATyr signal)*100.

[2] = system: Staphylococcus aureus strain UAMS-1; assay: Antimicrobial susceptibility testing (MIC, broth microdilution); format: cell-based; conditions: Staphylococcus aureus, S. aureus UAMS-1, Mueller Hinton broth, 37° C., read-out: MIC
Experimental: The RNase P inhibitors described herein were tested for antimicrobial activity toward Staphylococcus aureus strain UAMS-1. Individual wells of a 96-well microtiter plate were inoculated with ˜1×10^5 colony-forming units (CFU) of the indicated organism, containing two-fold increasing concentrations (from 0 to 256 μg mL^−1) of the indicated antibiotic or putative RnpA inhibitor, and incubated at 37° C. for 18 hours in Mueller Hinton broth. The MIC was defined as the lowest concentration of antibiotic in which there was no visible bacterial growth in the wells. Minimum bactericidal concentration testing was performed by enumerating the bacterial cells in each of the wells containing treatments at and above the MIC.

RnpA = molecular target: T2, RnpA (Staphylococcus aureus, UniProt P0A0H5); assay: RnpA mRNA degradation activity assay; format: biochemical
T2 sequence (P0A0H5 1-117): T1 sequence (P0A0H5 1-117)
Experimental: The RNase P inhibitors described herein were tested for activity toward RnpA mRNA degradation activity. Either 1 μg of total S. aureus RNA or 1 pmol of in vitro synthesized spa mRNA was incubated with 20 pmol RnpA at 37° C. for 15 to 30 min in a reaction buffer (50 mM Tris-HCl pH 8.0, 2 mM NaCl, 2 mM MgCl2) in the absence or presence of the indicated compound. Reactions were stopped by adding an equal volume of 2×RNA loading dye (95% formamide, 0.025% SDS, 0.025% bromophenol blue, 0.025% xylene cyanol FF, 0.5 mM EDTA), run on a denaturing 1.0% agarose-0.66 M formaldehyde gel and stained with ethidium bromide. RNA substrates and corresponding degradation products were visualized using a FluorChem 5500 system (Alpha Innotech; San Leandro, Calif.). The inhibitory effects of the test compounds were measured using Image J densitometry software (National Institutes of Health; Bethesda, Md.) to quantify the signal intensity of the RNA band(s) in the negative control (RNA alone), positive control (RnpA+RNA+DMSO), and experimental samples (RnpA+RNA+test compound). The percent enzyme inhibition of test compounds was calculated using the following equation: Percent inhibition=[(experimental signal-positive control)/(negative control signal-positive control signal)]*100.

[3] = ptRNATyr processing, read-out: RNase P IC50
[4] = RnpA mRNA degradation, gel densitometry, read-out: RnpA IC50

IC50 [1, 3]	MIC ([2]; UAMS1, 18 h)	IC50 (RnpA; [4])	SMILES	IC50 (RnpA)	IC50 ([1]; RNase P IC50, ptRNATyr processing)	MIC ([2]; UAMS1, 18 hours)
65 µM	32 µg/mL (≈ 81.2 µM)	175 µM	Cc1cc(Cl)ccc1OCC(=O)NNC(=S)NC(=O)/C=C/c1ccco1 [ST5524187]			
385 µM	> 256 µg/mL	470 µM	Cc1ccc(C(=O)NNC(=O)COc2ccc(C(C)C)cc2)o1 [MC-190041]			
> 500 µM	> 128 µg/mL		O=C(Cc1ccccc1)NNC(=S)NC(=O)c1ccco1 [ST5682126]			
180 µM	64 µg/mL (≈ 200 µM)	> 500 µM	COc1ccc(C(=O)NC(=S)NNC(=O)c2ccco2)cc1 [ST5254089]			
2 µM	128 µg/mL (≈ 364 µM)	45 µM	CC(C)c1ccc(OCC(=O)NNC(=O)c2cc3ccccc3[nH]2)cc1 [MC-190051]			
> 500 µM	> 256 µg/mL	> 500 µM	CC(C)c1ccc(OCC(=O)NNC(=O)c2ccco2)cc1 [MC-190034]			
			COc1ccccc1C(=O)NNC(=S)NC(=O)c1ccco1 [ST5525332]	> 500 µM	> 500 µM	8 µg/mL (≈ 25.1 µM)
> 500 µM	16 µg/mL (≈ 50.1 µM)	> 500 µM	COc1ccc(C(=O)NNC(=S)NC(=O)c2ccco2)cc1 [ST5254069]			
> 500 µM	> 256 µg/mL	> 500 µM	CC(C)c1ccc(OCC(=O)NNC(=O)c2cccs2)cc1 [MC-190035]			
280 µM	64 µg/mL (≈ 149 µM)	> 500 µM	CCOc1ccc(C(=O)NC(=S)NNC(=O)COc2ccc(C(C)CC)cc2)cc1 (stereo not shown) [ST5528171]			
250 µM	256 µg/mL (≈ 756 µM)	250 µM	CC(C)c1ccc(CNc2c(NCCc3ccco3)c(=O)c2=O)cc1 [MC-190092]			
> 500 µM	128 µg/mL (≈ 366 µM)	> 500 µM	COc1cccc(OC)c1C(=O)NC(=S)NNC(=O)c1ccco1 [ST5638707]			
80 µM	> 256 µg/mL	150 µM	COc1ccc2cc(C(=O)NNC(=O)COc3ccc(C(C)C)cc3)[nH]c2c1 [MC-190059]			
430 µM	64 µg/mL (≈ 211 µM)	> 500 µM	Cc1ccccc1C(=O)NNC(=S)NC(=O)c1ccco1 [ST5638722]			
> 500 µM	> 128 µg/mL	150 µM	Cc1ccc(OCc2ccc(C(=O)NNC(=S)NCC(C)C)o2)c(C)c1 [ST5607269]			
> 500 µM	> 256 µg/mL	> 500 µM	CC(C)c1ccc(OCC(=O)NNC(=O)Cc2ccco2)cc1 [MC-190038]			
	> 128 µg/mL		CC(C)c1ccc(CCNc2c(NCc3nc4ccccc4[nH]3)c(=O)c2=O)cc1 [MC-190087]			
	> 128 µg/mL		CC(C)c1ccc(CCNc2c(NCc3cc4ccccc4o3)c(=O)c2=O)cc1 [MC-190088]			
	> 128 µg/mL		O=C(CCc1ccccc1)NNC(=S)NC(=O)c1ccco1 [MC-190080]			
	> 128 µg/mL		Cc1ccc(CNc2c(NCCc3ccc(C(C)C)cc3)c(=O)c2=O)o1 [MC-190085]			
> 500 µM	> 128 µg/mL		O=C(NNC(=S)NC(=O)c1ccco1)c1ccc(NC(=O)c2ccccc2)cc1 [ST5524510]			

SMILES	IC50 [1, 3]	MIC ([2]; UAMS1, 18 h)	IC50 (RnpA; [4])	IC50 (RnpA)	IC50 ([1]; RNase P IC50, ptRNATyr processing)	MIC ([2]; UAMS1, 18 hours)
CC(C)c1ccc(OCC(=O)NNC(=S)NC(=O)c2ccncc2)cc1 [MC-190050]	150 µM	128 µg/mL (≈ 344 µM)		> 500 µM		
CC(C)c1ccc(OCC(=O)NNC(=S)NC(=O)Cc2ccco2)cc1 [MC-190084]		16 µg/mL (≈ 42.6 µM)				
CC(C)c1ccc(OCC(=O)NNC(=S)NC(=O)c2cnco2)cc1 [MC-190039]		64 µg/mL (≈ 177 µM)		> 500 µM		
CC(C)c1ccc(OCC(=O)NNC(=S)NC(=O)c2ccoc2)cc1 [MC-190098]	150 µM	16 µg/mL (≈ 44.3 µM)				
